According to patent publication US20230151065A1, “MULTI-DISULFIDE-BOND LONG-CHAIN PEPTIDE WITH NEURO[…], PHARMACEUTICAL COMPOSITION AND APPLICATION” (priority 2018, published 2023):
Where no end group is shown, it is not given here.

How the values were obtained:
[1] = tested on: primary cultured SD fetal rat cortical neurons after OGD damage; assay: OGD damage of cortical neurons, Western blot of apoptosis-related proteins; type: cell-based
[2] = tested on: primary fetal rat hippocampal neurons; assay: Growth of hippocampal neurons, live cell station; type: cell-based; details: ABPPk2 100 ng/ml, observed for 48 h
Protocol: (§1) (1) Primary culture of fetal rat hippocampal neurons: after a rat pregnant for 17 days was anesthetized, a fetal rat was taken out under sterile conditions; the brain of the fetal rat was taken out on ice; the hippocampus was carefully taken out under a dissecting microscope; and the blood vessel membranes were removed. 0.125% trypsin/EDTA was digested at 37° C. for 10 min, and the digestion was stopped by adding the DMEM complete medium containing 10% FBS. Cell debris were removed through centrifugal at 1000 rpm for 5 min; the DMEM complete medium was added to resuspend the cells; the cells were gently blown until a single cell suspension was formed; and the cells were inoculated at an appropriate density on a culture plate (dish) pre-coated with polylysine (PLL) and cultured at 37° C., 5% CO2 incubator. After 4 h, the cells were adhered to the wall; the DMEM complete medium was discarded and replaced with neurobasal medium containing different concentrations of ABPPk2 (the concentrations of ABPPk2 were 4 ng/ml, 20 ng/ml and 100 ng/ml); the neurobasal medium containing 10 ng/ml BDNF was used as the positive control group, and neurobasal was used as the negative control group.
(3) Neuron growth was observed by a live cell station: the hippocampal neuron single cell suspension obtained in (1) was inoculated on a culture plate pre-coated with PLL at a cell density of 5×10^5. […]

[3] = tested on: primary fetal rat hippocampal neurons; assay: Growth cones and neurite growth of hippocampal neurons, immunocytochemical staining; type: cell-based; details: vs negative control
Protocol: as §1
(4) The immunocytochemical staining method was used to observe the effect of ABPPk2 on the growth cones of primary fetal rat hippocampal neuron neurites. Primary hippocampal neurons were cultured according to the steps in (1), and the cells were inoculated on small round slides pre-coated with PLL at a density of 5×10^4, and then placed on a 24-well culture plate for culturing. Grouping and treatment were as described above. After 24 h, double-labeled immunocytofluorescent chemical staining of β-tubulin3 (TRITC) and F-actin (FITC) was conducted; the growth of the neurons was observed under a laser confocal microscope; and the area of the neuron growth cone and the length of filopodia were counted, as shown in FIG. 23.
(5) The immunocytochemical staining method was used to observe the effect of ABPPk2 on the growth of primary fetal rat hippocampal neuron neurites. Primary hippocampal neurons were cultured according to the steps in (1), and the cells were inoculated on small round slides pre-coated with PLL at a density of 5×10^4, and then placed on a 24-well culture plate for culturing. Grouping and treatment were as described above. […] The length of the neurites started from the axon hillock of the cell body to the top of the axon. The number of the neurites from the neuron cell bodies refers to the neurites directly connected with the cell bodies, as shown in FIG. 24.
(6) β-tubulin3 […]; the growth of the neurites was observed under the laser confocal microscope; the number of neurite branches and the proportion of the neurites with different lengths were counted; and the number of neurite branches refers to the number of branches of the neurites in a circle with a neuron cell body as the center and a radius of 100 μm.

[4] = tested on: primary cultured hippocampal neurons; assay: Synapse formation in hippocampal neurons (SYN/PSD95 staining, PSD95 Western blot); type: cell-based, rat; details: treatment with ABPPk2 for 8 d
Protocol: as §1, with “After 4 h, the cells were adhered to the wall; the DMEM complete medium was discarded and replaced with neurobasal medium containing different concentrations of ABPPk2 (the concentrations of ABPPk2 were 4 ng/ml, 20 ng/ml and 100 ng/ml); the neurobasal medium containing 10 ng/ml BDNF was used as the positive control group, and neurobasal was used as the negative control group.” left out
(7) Promotion effect of ABPPk2 on synapse formation in primary cultured hippocampal neurons. […] The field of view was randomly selected and photographed under the laser confocal microscope, and the number of synaptic cristulas on every 100 μm neurites was counted. The effect of ABPPk2 on the expression of PSD95 was analyzed by Western blot. The steps were as follows: the total protein was extracted and the total protein concentration was determined by Bradford method. […]

[5] = after OGD damage and treatment with ABPPk2
[6] = total protein, ABPPk2 medium-dose (40 ng/ml) and high-dose (200 ng/ml) groups vs OGD damage group
[7] = ABPPk2 4, 20, 100 ng/ml, 12 h as printed (24 h in method)

In the case of “Cys-Leu-Glu-Ser-Gly-Thr-Ser-Cys-Ile-Pro-Gly-Ala-Gln-His-Asn-Cys-Cys-Ser-Gly-Val-Cys-Val-Pro-Ile-Val-Thr-Ile-Phe-Tyr-Gly-Val-Cys-Tyr (CLESGTSCIPGAQHNCCSGVCVPIVTIFYGVCY; disulfide (positions not given here); not fully specified (bridges); also: three disulfide bonds, pairing not given here) [ABPPk2, 33 amino acid polypeptide isolated from the extract of Achyranthes bidentata Blume, three pairs of disulfide bonds]”, the “expression of AIF in mitochondria” value [1, 5] is reported as “significantly up-regulated”, the “expression of AIF in the nucleus” value [1, 5] is reported as “significantly down-regulated” and the “expression of Cyt C in cytoplasma” value [1, 5] is reported as “significantly down-regulated”. The “expression of Cyt C in mitochondria” value [1, 5] was “significantly up-regulated”, the Bcl-2 expression ([1]; total protein, ABPPk2 high-dose group (200 ng/ml) vs OGD damage group) was “significantly up-regulated” and the Bax expression [1, 6] was “significantly down-regulated”. For the same substance, the “Cleaved caspase-3 expression” value [1, 6] was “significantly down-regulated”, the “growth of hippocampal neurons (live cell station)” value [2] was “can promote the growth of the hippocampal neurons and the extension of neurites” and the “area of the neuron growth cone” value [3, 7] was “the area of the growth cone can be significantly increased”. The length of filopodia [3, 7] was “the length of the filopodia can be increased”, the “length of the neurites” value ([3]; ABPPk2 for 24 h) was “the extension of hippocampal neuronal neurites can be significantly promoted” and the “number of the neurites from the neuron cell bodies” value ([3]; ABPPk2 for 24 h) was “the number of the neurites from the neuron cell bodies can be significantly increased”. The “number of neurite branches” value ([3]; ABPPk2 for 48 h) was “increased significantly”, the “proportion of long neurite neurons” value ([3]; ABPPk2 for 48 h) was “significantly higher than that of the negative control group” and the “number of the formed synapses” value [4] was “the number of the formed synapses can be significantly increased”. The “expression of PSD95 protein” value ([4]; Western blot) was “up-regulated”.
